# Test results published in patent publication US20220105096A1, “INHIBITORS OF HUMAN IMMUNODEFICIENCY VIRUS REPLICATION” (ViiV HEALTHCARE UK (NO.5) LIMITED, priority 2019, published 2022).
# Assays:
# [1] = Metabolism in human liver microsomes; format: in vitro ADME; conditions: pH 7.4, 1 μM compound, 1 mg/mL microsomes, NADPH, 37° C., read-out: Human liver microsome T1/2
# Protocol: (§1) Liver microsomes from human, rat dog and monkey were thawed and diluted to a final concentration of 1 mg/mL in 100 mM potassium phosphate buffer (pH 7.4). Test compounds and controls were prepared at 100× final concentration of 1 μM in 1:1 acetonitrile:water (v/v) and aliquoted into microsomal mixture. The mixture was preincubated at 37° C. in a shaking water bath for 10 minutes. The incubations were performed in duplicate. Three controls were included in the incubations; warfarin, phenacetin, and verapamil. After the preincubation, the reaction was initiated with NADPH at a final concentration of 1 mM. At 0, 5, 15, 30, 45 and 60 minutes, 25 μL of sample was removed and quenched with 300 μL of acetonitrile containing internal standard (Telmisartan). The samples were vortexed for 5 minutes at 1200 rpm and then centrifuged at 4000 rpm for 10 min. A 100 μL aliquot of supernatant was diluted three-fold with water and injected on an Exion LC 4500 Triple Quad LC-MS/MS system. Results were reported as a percentage of parent remaining and was calculated from peak area ratios of test compound remaining after at each time point and compared to time zero incubation.
# [2] = Metabolism in rat liver microsomes; format: in vitro ADME; conditions: pH 7.4, 1 μM compound, 1 mg/mL microsomes, NADPH, 37° C., read-out: Rat liver microsome T1/2
# Protocol: as §1
# [3] = Metabolism in dog liver microsomes; format: in vitro ADME
# Protocol: as §1
# [4] = Metabolism in monkey liver microsomes; format: in vitro ADME
# Protocol: as §1
# [5] = Pharmacokinetic parameters in vivo, monkey; set-up: species or system Cynomolgus monkeys
# Protocol: (§2) PK was investigated in male CD1 mice, Wistar Han Rats, Cynomolgus monkeys, and Beagle Dogs. Two groups of animals (N=3 per group) received test compound either as an intravenous (IV) dose (1 mg/kg) or by oral gavage (5 mg/kg solution and suspension). Drug was formulated in 90% PEG 400, 10% ethanol for IV administration and in 90% PEG400, 5% ethanol for PO administration. Blood samples were collected at 0.167, 0.25, 0.5, 0.75, 1, 2, 3, 5, 7, 24, 48, 72 and 96 h post dose for IV; 0.25, 0.5, 0.75, 1, 2, 3, 5, 7, 24, 48, 72 and 96 h post dose for oral. Blood samples were collected into K3EDTA tubes and centrifuged at 1500 to 2000×g to obtain plasma. Plasma samples were stored at −20° C. until analysis by LC-MS/MS. All […] samples were injected on an Exion LC 4500 Triple Quad™ LC-MS/MS system. The analytical column used was a Phenomenex C18 (C18, 4.6 mm×50 mm, 5 μm) maintained at room temperature. Mobile Phase A consisted of 0.1% (v/v) formic acid in MilliQ water. Mobile Phase B consisted of 100% methanol. The flow rate was 1 mL/min. […] All LC-MS/MS analysis parameters are captured electronically in the raw data files. The PK parameters were obtained by non-compartmental analysis of plasma concentration vs time data (Phoenix WinNonlin v8). The peak concentration (Cmax) and time for Cmax (Tmax) were recorded directly from experimental observations. The area under the curve from time zero to the last sampling time [AUC0-T] and the area under the curve from time zero to infinity [AUCINF] were calculated using a combination of linear and log trapezoidal summations. The total plasma clearance (CLTp), steady-state volume of distribution (Vss), apparent elimination half-life (T-HALF), and mean residence time (MRT) were estimated after IV administration. Estimations of AUC and T-HALF were made using a minimum of three timepoints with quantifiable concentrations. The absolute oral bioavailability (F) was estimated as the ratio of dose-normalized AUC values following oral and IV doses.
# [6] = Pharmacokinetic parameters in vivo, dog; set-up: species or system Beagle Dogs
# Protocol: as §2
# [7] = Allometric scaling of pre-clinical PK parameters to predict dose in human
# Protocol: Human dose predictions were performed using Phoenix WinNonlin (v 8.0) software and Microsoft Excel using the ModelRisk add-in for population modeling. Human IV parameters (Vc, Ka, K12, K21, KeI) were determined using Mean Residence Time (MRT) scaling from preclinical species (mouse, rat, dog and cyno). For this calculation, each animal of the relevant PK studies was modeled independently. Absorption (Ka) was determined by deconvolution (PO) or from the half-life (SC) in preclinical species (Ka=LN(2)/t1/2). The predicted human dose for PO and SC is calculated with consideration of human variability and is calculated to cover 95% of the human population.
# [8] = system: primary human hepatocytes; experiment: Cytotoxicity assessed in parallel in the CYP induction assay; format: cell-based; conditions: concentrations tested up to 30 μM, 48 hours
# Protocol: Compounds were tested in a CYP induction assay using inducible cryopreserved human primary hepatocytes from three donors to determine the potential to cause induction (as measured by an increase in mRNA transcription) of CYP2B6. Test compounds (0.12 to 30 μM final concentration) were incubated for 48 hours with primary human hepatocytes naturally expressing all nuclear receptors involved in regulation of expression levels of various CYP enzymes. Fresh solutions of test compounds and controls were diluted in assay media and added every 24 hours for two consecutive days, with a final DMSO concentration of 0.1%. At the end of the incubation, the integrity of cell monolayers, cell density and viability were evaluated to assess cytotoxicity effects. […] It was then used in reverse transcription polymerase chain reactions (RT-PCR) to quantify the amount of specific mRNA species encoding human CYP3A4, CYP2B6, and CYP1A2 genes.
# The induction potential of test compounds and controls was compared to known CYP2B6 inducer Phenobarbital (1000 μM). The results of this assay are expressed as fold induction. Fold induction was calculated as a ratio of mRNA level in cells treated with test compound over that in cells treated with DMSO (solvent control) alone, the basal mRNA level, and thus represents the induction potential of the test compound. […]
# [9] = cynomolgus monkey, plasma, Monkey, IV 1 mg/kg
# [10] = Beagle, plasma, Dog, IV 1 mg/kg
structure (smiles),measurement,setting,value
"Cn1nc(NS(C)(=O)=O)c2c(Cl)ccc(-n3c([C@H](Cc4cc(F)cc(F)c4)NC(=O)Cn4nc(C(F)F)c5c4C(F)(F)[C@@H]4C[C@H]54)nc4nc(OCCC(C)(F)F)ccc4c3=O)c21 (atropisomer, axis not shown; (P)) [Example 1, N—((S)-1-((3P)-3-(4-chloro-1-methyl-3-(methylsulfonamido)-1H-indazol-7-yl)-7-(3,3-difluorobutoxy)-4-oxo-3,4-dihydropyrido[2,3-d]pyrimidin-2-yl)-2-(3,5-difluorophenyl)ethyl)-2-((3bS,4aR)-3-(difluoromethyl)-5,5-difluoro-3b,4,4a,5-tetrahydro-1H-cyclopropa[3,4]cyclopenta[1,2-c]pyrazol-1-yl)acetamide]",half-life at 1 μM,[1],> 120 min
same,half-life at 1 μM,[2],> 120 min
same,stability in dog liver microsomes relative to Example 60.2,[3]; Example 1 versus Example 60.2,at least seven times more stable
same,half-life at 1 μM,"[3]; dog, liver microsomes, pH 7.4, 1 μM compound, 1 mg/mL microsomes, NADPH, 37° C., read-out: Dog liver microsome T1/2",> 120 min
same,stability in monkey liver microsomes relative to Example 60.2,[4]; Example 1 versus Example 60.2,at least two times more stable
same,half-life at 1 μM,"[4]; monkey, liver microsomes, pH 7.4, 1 μM compound, 1 mg/mL microsomes, NADPH, 37° C., read-out: Monkey liver microsome T1/2",> 120 min
same,clearance,[5]; [9],8.8 mL/min/kg
same,half-life,[5]; [9],252 min
same,Vd,"[5]; cynomolgus monkey, plasma, Monkey, IV 1 mg/kg, read-out: Vss",1.73 L/kg
same,bioavailability,"[5]; cynomolgus monkey, plasma, Monkey, oral gavage 5 mg/kg solution vs IV 1 mg/kg",7.92%
same,half-life in circulation higher than Example 60.2,[5]; monkey,three-fold
same,clearance improved relative to Example 60.2,"[5]; monkey, IV",2.5 fold
same,clearance,[6]; [10],1.16 mL/min/kg
same,half-life,[6]; [10],744 min
same,Vd,"[6]; Beagle, plasma, Dog, IV 1 mg/kg, read-out: Vss",0.88 L/kg
same,bioavailability,"[6]; Beagle, plasma, Dog, oral gavage 5 mg/kg solution vs IV 1 mg/kg",34.6%
same,half-life in circulation higher than Example 60.2,[6]; dog,five-fold
same,clearance improved relative to Example 60.2,"[6]; dog, IV",seven-fold
same,predicted once-daily oral dose in human lower than for Example 60.2,[7]; Example 1 versus Example 60.2,15 fold
same,predicted Q1M SC dose in human lower than for Example 60.2,[7]; from SC rat apparent half-lives and predicted human clearance,20 fold
same,predicted human QD PO dose,"[7]; once-daily oral dose to maintain efficacious plasma concentration, covers 95% of human population",less than 5 mg
same,cytotoxicity in CYP induction assay,[8],No cytotoxicity was observed
